From US7795267B2, “Bicyclic piperazine compound having TGR23 antagonistic activity” (Takeda Pharmaceutical Company Limited, priority 2003, dated 2010)

Key:
[1] = test system: human colon cancer cell strain LS 174T; experiment: Inhibition of DNA synthesis by cancer cells ([methyl-3H]-thymidine uptake under TGR23 ligand stimulation); format: cell-based; conditions: LS174T, LS 174T cells, 10 nM TGR23 ligand, read-out: IC50 value of the test compound in DNA synthesis
Protocol: The cells of human colon cancer cell strain LS 174T (ATCC number: CL-188) were inoculated to a 96-well plate to a concentration of 20,000 cells per well, and then incubated in an EMEM medium (Nikken Biology and Medical Research Center) containing 0.05% bovine serum albumin not containing fatty acids (Sigma Chemical Co.) for 24 hours. After the 15-minute preincubation of these cells with the test compound, the cells were incubated in the presence of 10 nM of a TGR23 ligand [a human TGR23-2 ligand (1-20) represented by SEQ ID NO: 23 in WO 03/25179 was used] for 18 hours. Next, the cells were incubated in the presence of 0.25 μCi of [methyl-^3H]-thymidine (Amersham Biosciences KK) per well for 6 hours. The [methyl-^3H]-thymidine incorporated into the cancer cell DNA was measured in the following manner. After discarding the culture supernatant, 100 μL of ice-cold 10% trichloroacetic acid per well was added to the cells having taken up [methyl-^3H]-thymidine, and the cells were maintained on ice for 15 minutes. After discarding the trichloroacetic acid solution, 300 μL of a 0.2 N sodium hydroxide solution per well was added to the immobilized cells, and then the cells were kept warm overnight at 37° C. The amount of [methyl-^3H]-thymidine in the cell lysate was measured with a liquid scintillation counter.
The rate of DNA synthesis inhibition by the test compound was defined as the relative value obtained by subtracting the amount of [methyl-^3H]-thymidine uptake determined without stimulation from the uptake amount determined in the presence of the test compound and 10 nM of the TGR23 ligand, when the value obtained by subtracting the amount of [methyl-^3H]-thymidine uptake determined without stimulation from the uptake amount determined in the presence of the stimulation by 10 nM of the TGR23 ligand was taken as 100%. The IC50 value of the test compound in DNA synthesis was defined as the concentration of the test compound required to achieve 50% of the DNA synthesis inhibition rate.

[2] = test system: human colon cancer cell strain LS 174T; experiment: Cell growth inhibition (MTT method, TGR23 ligand stimulation); format: cell-based; conditions: LS174T, LS 174T cells, 10 nM TGR23 ligand, 24 hours, read-out: IC50 value of the test compound for cell growth
Protocol: The cells of human colon cancer cell strain LS 174T (ATCC number: CL-188) were inoculated in a 96-well plate to a concentration of 40,000 cells per well, and then the cells were incubated for 24 hours in an EMEM medium containing 0.05% bovine serum albumin not containing fatty acids. After a 15-minute pretreatment of these cells with the test compound, LS 174T cells were incubated for 24 hours in the presence of 10 nM of a TGR23 ligand [a human TGR23-2 ligand (1-20) represented by SEQ ID NO: 23 in WO 03/25179 was used]. Cell growth was evaluated by the MTT method. Cells were lysed by keeping them warm in an MTT solution (3-(4,5-dimethylthiazol-2-yl)-2,5-diphenyl tetrazolium bromide) at a final concentration of 0.5 mg/mL at 37° C. for 4 hours, and then in a 5% SDS solution at 37° C. for 24 hours. The absorbance of the cell lysate was measured using a 96-well plate reader. […]
The cell growth inhibitory rate of the test compound was defined as the relative value obtained by subtracting the absorbance change determined without stimulation from the absorbance change determined in the presence of the test compound and 10 nM of the TGR23 ligand, when the value obtained by subtracting the absorbance change determined without stimulation from the absorbance change determined in the presence of stimulation by 10 nM of the TGR23 ligand was taken as 100%. […]

| Structure (SMILES) | IC50 [1] | IC50 [2] |
| --- | --- | --- |
| O=C(NCCN1CC=CCC1)N1CCN2C(=O)OC(c3ccccc3)(c3ccccc3)C2C1 (single isomer, unassigned; (+)) [Example 201, (+)-N-[2-(3,6-Dihydropyridin-1(2H)-yl)ethyl]-tetrahydro-3-oxo-1,1-diphenyl-3H-oxazolo[3,4-a]pyrazine-7(1H)-carboxamide] | ≤ 1000 nM | – |
| O=C(NCc1ccccc1)N1CCN2C(=O)OC(c3ccccc3)(c3ccccc3)C2C1 (centres unmarked) [Example 17, Tetrahydro-3-oxo-1,1-diphenyl-N-(phenylmethyl)-3H-oxazolo[3,4-a]pyrazine-7(1H)-carboxamide] | ≤ 1000 nM | ≤ 1000 nM |
| O=C(NCc1ccc(F)cc1)N1CCN2C(=O)OC(c3ccccc3)(c3ccccc3)C2C1 (centres unmarked) [Example 25, N-[(4-Fluorophenyl)methyl]-tetrahydro-3-oxo-1,1-diphenyl-3H-oxazolo[3,4-a]pyrazine-7(1H)-carboxamide] | ≤ 1000 nM | ≤ 1000 nM |
| O=C(NCc1cccc(F)c1)N1CCN2C(=O)OC(c3ccccc3)(c3ccccc3)C2C1 (centres unmarked) [Example 28, N-[(3-Fluorophenyl)methyl]-tetrahydro-3-oxo-1,1-diphenyl-3H-oxazolo[3,4-a]pyrazine-7(1H)-carboxamide] | ≤ 1000 nM | – |
| O=C(NCCN1CC=CCC1)N1CCN2C(=O)OC(c3ccccc3)(c3ccccc3)C2C1 (centres unmarked) [Example 85, N-[2-(3,6-Dihydropyridin-1(2H)-yl)ethyl]-tetrahydro-3-oxo-1,1-diphenyl-3H-oxazolo[3,4-a]pyrazine-7(1H)-carboxamide] | ≤ 1000 nM | – |
| O=C(NCc1ccsc1)N1CCN2C(=O)OC(c3ccccc3)(c3ccccc3)C2C1 (centres unmarked) [Example 96, Tetrahydro-3-oxo-1,1-diphenyl-N-[(3-thienyl)methyl]-3H-oxazolo[3,4-a]pyrazine-7(1H)-carboxamide] | ≤ 1000 nM | – |
| O=C(NCc1ccc(F)c(F)c1)N1CCN2C(=O)OC(c3ccccc3)(c3ccccc3)C2C1 (centres unmarked) [Example 97, N-[(3,4-Difluorophenyl)methyl]-tetrahydro-3-oxo-1,1-diphenyl-3H-oxazolo[3,4-a]pyrazine-7(1H)-carboxamide] | ≤ 1000 nM | – |
| O=C(CCCN1CC=CCC1)N1CCN2C(=O)OC(c3ccccc3)(c3ccccc3)C2C1 (centres unmarked) [Example 138, 7-[4-(3,6-Dihydropyridin-1(2H)-yl)-1-oxobutyl]-hexahydro-1,1-diphenyl-3H-oxazolo[3,4-a]pyrazin-7(1H)-3-one] | ≤ 1000 nM | – |
| O=C(NCCN1CCCCCC1)N1CCN2C(=O)OC(c3ccccc3)(c3ccccc3)C2C1 (centres unmarked) [Example 147, N-[2-(Hexahydro-1H-azepin-1-yl)ethyl]tetrahydro-3-oxo-1,1-diphenyl-3H-oxazolo[3,4-a]pyrazine-7(1H)-carboxamide] | ≤ 1000 nM | – |
